In US6737547B1, “Compositions containing and methods of using N-acyl-1H-aminoindenes” (Teva Pharmaceutical Industries, Ltd., priority 1998, dated 2004):
Where two headings read alike, the source gives them in different places.

Columns and labels:
[1] = test system: Male ICR mice; test: Protection against maximal electroshock-induced seizure in mice (MES); assay type: in vivo; settings: for protected/total: electroshock 30 min after medication; for ED50: Mus musculus, median effective dose, maximal electroshock, mice, ip, read-out: ED50 (95% confidence limits)
Procedure: Male ICR mice were used. The rodent shocker apparatus consisted of a shock stimulator Type 221 (Hugo Sachs Elektronik, Germany) with a current setting for mice. Thirty minutes after medication with a given agent, given intraperitoneally as a fine slurry in methyl cellulose 0.5% in distilled water, each mouse received an electroshock of 50 mA for 0.2 seconds, applied to the eye, at a maximum of 250 V/300 mA. The ratio of mice protected against seizure in a group of four per dose was determined and used as an indicator of neuroprotective activity.
Protection of mice against seizures induced by electroshock is a widely used model to probe for potential anti-epileptic agents (see, for example, Y. I. Sohn et al., Anticonvulsant properties of diphenylthiohydantoin, Arch. Int. Pharmacodyn. 188, 284-289, 1970).

[2] = test system: mice; test: Protection against hypobaric hypoxia in mice (survival time); assay type: in vivo
Procedure: The apparatus used consisted of two chambers A and B connected by a three-way valve. […] The air in chamber A was evacuated to a pressure of 100 mm Hg. The three way valve was turned to disconnect chamber B from room air and to connect it to chamber A. At this point, the pressure in B fell to 200 mm Hg. Survival of residing mice was determined up to a maximum exposure of 15 minutes, and is defined as the time between onset of hypoxia to cessation of respiration.

[3] = test system: guinea-pig ileal preparation; test: Decrease of contractile response to intramural electric stimulation in the guinea-pig ileal preparation; settings: Cavia porcellus
Procedure: A 2 cm-long section of the distal ileum freshly dissected from a CO2-asphyxiated guinea pig is cleaned from adhering tissue and mounted in an organ bath (5 mL) containing Krebs solution constantly aerated with oxygen containing 5% CO2. The initial tension is adjusted at 5 g per strip. Tension is monitored isometrically with a Grass FTC3 force transducer. Intramural electric stimulation is delivered through a platinum electrode from a Grass stimulator model s88, s44 at supramaximal voltage (V) and a frequency of 0.1/s. The preparation develops a rhythmic contractile response at maximal amplitude which is stable over time. Addition of test drugs to the organ bath causes a dose-dependent decrease in contraction amplitude which is stable over 5-8 minutes. The relative decrease in contractile response indicates the relative potency of a given agent in a series.
Blocking or decreasing neural excitability evoked by programmed electric stimulation is another indicator of a compound's potential neuroprotective activity. A convenient test system uses the guinea-pig ileal preparation mounted in an organ bath (see, for example, Eiichi Hayashi et al., European J. Pharmacol 48, 297-307, 1978).

[4] = test system: guinea-pig ileal preparation; test: Decrease in contractile response of guinea-pig ileum evoked by the nicotinic agonist DMPP; design: Emax: dose or concentration left out as unconfirmed
Procedure: A strip of guinea-pig ileum is mounted in an organ bath, as described in EXAMPLE 10. 1-N,N-dimethyl-4-N-phenylpiperazinium chloride (DMPP) is added at intervals of about 15 minutes in order of increasing dose, to cause bath concentrations in the range of 0.1-10 uM. A brief contraction follows each addition. The amplitude of the contractile response is used to derive a dose-response relationship for DMPP. Usually, a bath concentration of 1 uM DMPP will give 90-100% of the maximal response obtainable in the given preparation. One of two procedures follows this: A dose-response of a test compound is determined in the presence of a fixed concentration of DMPP. This is done by incubating the preparation with a given concentration of the test compound, then challenging it with DMPP at a dose to give 1 uM bath concentration. The procedure is repeated with the next higher concentration of the test compound. In the other procedure, the dose-response of DMPP is determined in the presence of a fixed bath concentration of the test compound, usually 200 uM.
When intramural nerve stimulation occurs, as in the case of electrical stimulation, the contractile effector substance is released from nerve endings by a depolarization wave that propagates along the parasympathetic nerve fiber until its junction with smooth muscle of the ileum. An alternative but not equivalent procedure is stimulation of parasympathetic ganglia by an appropriate nicotinic agonist such as 1-N,N-dimethyl-4-N-phenylpiperazinium chloride (DMPP). Stimulation of parasympathetic ganglia causes a depolarization wave in the post-ganglionic nerve fiber which terminates on the smooth muscle of the ileum, causing release of contractile effector and contraction (see, for example, E. S. Vizi, Acetylcholine release from guinea-pig ileum by parasympathetic ganglion stimulants and gastrin-like polypeptides, Br. J. Pharmacol. 47, 765-77. 1973).

[5] = test system: guinea-pig ileal preparation; test: Potentiation of adenosine depression of contractile response, procedure II (after exposure to and washout of test compound); settings: for Mean potentiation ratio ± SEM: drug conc. (uM): 3, 100-400, 2a, 1000, 2, 1000; for rate of restoration of the original response to adenosine after washout: after exposure to and washout of the potentiating agent
Procedure: (§1) The test system used is the intramural electrically-stimulated guinea-pig ileal preparation as described in EXAMPLE 10. Adenosine added to the organ bath in rising concentrations in the range 0.1-10 uM causes a dose-dependent decrease in contraction amplitude, with an EC50 of about 1 uM.
(§2) The calculated effect is the product of the responses to each of the two agents when applied separately. The potentiation ratio is defined as (100%found)/(100-% calculated).
In all cases, the difference between the calculated and observed response was statistically significant. […] In procedure II, the dose response to adenosine was determined before and after exposure of the preparation to the test drug and washout of the test drug from the organ bath. In this case, significant potentiation of adenosine was observed even though the test drug had been washed out from the organ bath. In fact, the potentiation ratio, as defined earlier, was even higher than found in the presence of the test compounds (Procedure I), reaching very high values.

[6] = test system: guinea-pig ileal preparation; test: Potentiation of adenosine depression of contractile response, procedure I (in the presence of test compound); settings: drug present
Procedure: as §1
In procedure I, the effect of a given concentration of adenosine, usually, 0.2 or 0.4 uM was first determined and related to the full contractile response in the absence of adenosine. […] The amplitude of the contractile response was recorded. Now, adenosine was added at the same dose initially used, and the effect of adenosine in the presence of the test compound was recorded.
as §2

[7] = Mus musculus, 50 mg/kg, ip, mice, 200 mm Hg, read-out: survival ± SD (survival time as percent of vehicle control)
[8] = Mus musculus, ip, mice, 200 mm Hg, read-out: survival ± SD (survival time as percent of vehicle control)
[9] = Mus musculus, 25 mg/kg, ip, mice, 200 mm Hg, read-out: survival ± SD (survival time as percent of vehicle control)
[10] = dose of 25 mg/kg, listed in decreasing order of activity
[11] = Mus musculus, ip, read-out: survival ± SD (survival time as percent of vehicle control)
[12] = calculated from logit plot, contractile response to intramural electric stimulation, read-out: EC50
[13] = adenosine 0.4 uM, after exposure and washout, 5, 50-400, 6, 50-400
[14] = adenosine 0.1 uM, drug conc. range 40-400 uM
[15] = adenosine 0.2 uM, drug conc. range 40-400 uM
[16] = adenosine 0.4 uM, after exposure and washout, drug conc. range (uM): 3, 100-400, 5, 50-400, 6, 50-400
[17] = Cavia porcellus, calculated from logit plot, inhibiting contractile response to 1 uM DMPP, read-out: EC50
[18] = adenosine 0.4 uM, drug conc. range (uM): 3, 20-400, 5, 50-200, 6, 25-50

## CCCC(CCC)C(=O)[O-].[Na+] [Sodium valproate, sodium valproate, reference compound]
[1]; 280 mg/kg
  protected/total: 1/8
[1]; 310 mg/kg
  protected/total: 2/8
[1]; 340 mg/kg
  protected/total: 4/8
[1]; 400 mg/kg
  protected/total: 6/8
[1]; 600 mg/kg
  protected/total: 8/8
[1]
  ED50: 350 mg/kg

## CC(=O)NC1CCc2cc(Cl)ccc21 (stereo not drawn) [Compound 13, reference compound]
[2]; [7]
  response vs control in vivo at 50 mg/kg: 148 ± 77%
[2]; [8]
  response vs control in vivo at 100 mg/kg: 267 ± 151%

## O=CNC1=CCc2cc(Cl)ccc21 [Compound 7, N-formyl-6-chloro-3-amino-1H-indene]
[2]; Mus musculus, 12.5 mg/kg, ip, mice, 200 mm Hg, read-out: survival ± SD (survival time as percent of vehicle control)
  response vs control in vivo at 12.5 mg/kg: 357 ± 299%
[2]; [9]
  response vs control in vivo at 25 mg/kg: 467 ± 239%
[2]; [7]
  response vs control in vivo at 50 mg/kg: 893 ± 433%
[2]; [10]
  activity in the hypobaric hypoxia model (in words): strong activity

## CN1C(=O)CN=C(c2ccccc2)c2cc(Cl)ccc21 [Diazepam, diazepam, reference compound]
[2]; [11]
  response vs control in vivo at 10 mg/kg: 316 ± 78%

## CC(=O)NC1=CCCc2ccccc21 [Compound 4, N-Acetyl-4-amino-1,2-dihydronaphthalene]
[3]; [12]
  EC50: 752 µM
[1]; 75 mg/kg intraperitoneally
  protected/total: 0/4
[1]; 100 mg/kg intraperitoneally
  protected/total: 3/4
[1]
  ED50: 92.3 mg/kg
[2]; [11]
  response vs control in vivo at 25 mg/kg: 156 ± 24%
[2]; dose not given
  activity in the hypobaric hypoxia model (in words): inactive
[4]; Cavia porcellus
  EC50: 193 µM

## CC(=O)NC1CCc2ccccc21 (stereo not drawn) [Compound 2, N-acetyl-1-aminoindan, reference compound]
[3]; [12]
  EC50: 1840 µM
[5]; [13]
  Mean potentiation ratio ± SEM: 0.87
[2]; [8]
  response vs control in vivo at 100 mg/kg: 200%
[6]; [14]
  Mean potentiation ratio ± SEM: 1.35 ± 0.07
  potentiation ratio, Max: 1.49
  potentiation ratio, Min: 1.16
[6]; [15]
  Mean potentiation ratio ± SEM: 1.24 ± 0.16
  potentiation ratio, Max: 1.51
  potentiation ratio, Min: 0.79

## CC(=O)NC1=CCc2cc(Cl)ccc21 [Compound 6, N-Acetyl-3-amino-6-chloro-1H-indene]
[3]; [12]
  EC50: 133 µM
[5]; [13]
  Mean potentiation ratio ± SEM: 8.82 ± 1.2
[5]; [16]
  potentiation ratio, Max: 12.28
  potentiation ratio, Min: 6.86
[5]
  rate of restoration of the original response to adenosine after washout: slowest
[5]; guinea pig ileal preparation after wash-out
  potentiating effect retained after wash-out from the organ bath (in words): prolonged potentiating effect
[1]; 50 mg/kg intraperitoneally
  protected/total: 2/4
[1]; 100 mg/kg intraperitoneally
  protected/total: 4/4
[1]
  ED50: 50 mg/kg
[2]; [9]
  response vs control in vivo at 25 mg/kg: 393 ± 110%
[2]; [7]
  response vs control in vivo at 50 mg/kg: 234 ± 120%
[2]; [8]
  response vs control in vivo at 100 mg/kg: 294 ± 267%
[2]; [10]
  activity in the hypobaric hypoxia model (in words): strong activity
[4]; [17]
  EC50: 27 µM
[6]; [18]
  Mean potentiation ratio ± SEM: 1.93 ± 0.39
  potentiation ratio, Max: 2.32
  potentiation ratio, Min: 1.54

## CC(=O)N[C@@H]1CCc2ccccc21 [Compound 2a, (R)-N-acetyl-1-aminoindan, reference compound]
[3]; [12]
  EC50: 748 µM
[5]; [13]
  Mean potentiation ratio ± SEM: 1.41
[5]
  rate of restoration of the original response to adenosine after washout: fastest
[1]; 25 mg/kg intraperitoneally
  protected/total: 0/4
[1]; 50 mg/kg intraperitoneally
  protected/total: 3/4
[1]; 100 mg/kg intraperitoneally
  protected/total: 4/4
[1]
  ED50: 42 mg/kg
[2]; [9]
  response vs control in vivo at 25 mg/kg: 142 ± 94%
[2]; Mus musculus, 36 mg/kg, ip, mice, 200 mm Hg, read-out: survival ± SD (survival time as percent of vehicle control)
  response vs control in vivo at 36 mg/kg: 110 ± 57%
[2]; [7]
  response vs control in vivo at 50 mg/kg: 299 ± 69%
[2]; [8]
  response vs control in vivo at 100 mg/kg: 375 ± 72%
[4]; [17]
  EC50: 279 µM
[4]; test compound at 200 uM fixed bath concentration, FIG. 8
  reversibility of the depression by rising concentrations of DMPP: almost to full restoration
[6]; [15]
  Mean potentiation ratio ± SEM: 1.31 ± 0.05
  potentiation ratio, Max: 1.43
  potentiation ratio, Min: 1.19

## CCCC(C)C1(CC)C(=O)N=C([O-])NC1=O.[Na+] (stereo not drawn) [Nembutal, reference compound]
[2]; 40 mg/kg, ip, mice, 200 mm Hg
  survival ± SD (survival time as percent of vehicle control): 253 ± 200% of vehicle control

## C[N+]1(C)CCN(c2ccccc2)CC1 [DMPP, 1-N,N-dimethyl-4-N-phenylpiperazinium chloride, reference compound]
[4]; Cavia porcellus, read-out: contractile response as % of the maximal response obtainable
  Emax: 90 to 100%

## COC(=O)NC1=CCc2ccccc21 [Compound 8, N-Methoxycarbonyl-3-amino-1H-indene]
[2]; [11]
  response vs control in vivo at 12.5 mg/kg: 195 ± 90%
  response vs control in vivo at 25 mg/kg: 402 ± 348%
  response vs control in vivo at 50 mg/kg: 547 ± 327%
[2]; [10]
  activity in the hypobaric hypoxia model (in words): strong activity

## Nc1ncnc2c1ncn2[C@@H]1O[C@H](CO)[C@@H](O)[C@H]1O [Adenosine, adenosine, reference compound]
[3]; adenosine added in rising concentrations 0.1-10 uM, electrically-stimulated ileal preparation, read-out: EC50 of decrease in contraction amplitude
  EC50: ~1 µM
